In US8377424B2, “Treatment of periodontal disease” (Mars, Incorporated, priority 1996, dated 2013):

Experiments:
[1] = Rancimat oxidative stability test of peanut oil; conditions: Rancimat 100° C., 20 cc/min air, control 10.5 ± 0.7
Experimental: The procedures described in Examples 1, 2 and 3 were used to prepare cocoa extracts which were manipulated further to produce two fractions from gel permeation chromatography. These two fractions are actually combined fractions A through C, and D and E (See FIG. 1) whose antioxidant properties were compared against the synthetic antioxidants BHA and BHT.
Peanut Oil was pressed from unroasted peanuts after the skins were removed. 50 μL of methanol solubilized antioxidant was added to each sample to aid in dispersion of the antioxidant. A control sample was prepared with 50 μL of methanol containing no antioxidant.
The samples were evaluated in duplicate, for oxidative stability using the Rancimat stability test at 100° C. and 20 cc/min of air. Experimental parameters were chosen to match those used with the Active oxygen Method (AOM) or Swift Stability Test (Van oosten et al., 1981). Results are reported in Table 8 as hours required to reach a peroxide level of 100 meq.

[2] = tested on: Staphylococcus aureus; assay: Disk diffusion bioassay, S. aureus; format: cell-based; conditions: control disk containing 30 ug vancomycin
Experimental: (§1) A study was conducted to evaluate the antimicrobial activity of procyanidin oligomers against Helicobacter pylori and Staphylococcus aureus. Pentamer enriched material was prepared as described in Example 13, Method A and analyzed as described in Example 14, Method C, where 89% was pentamer, and 11% was higher oligomers (n is 6 to 12). Purified pentamer (96.3%) was prepared as described in Example 14, Method D.
(§2) Helicobacter pylori and Staphylococcus aureus were obtained from the American Type Culture Collection (ATCC). For H. pylori, the vial was rehydrated with 0.5 mL Trypticase Soy broth and the suspension transferred to a slant of fresh TSA containing 5% defibrinated sheep blood. The slant was incubated at 37° C. for 3 to 5 days under microaerophilic conditions in anaerobic jars (5 to 10% carbon dioxide; CampyPakPlus, BBL). When good growth was established in the pool of broth at the bottom of the slant, the broth was used to inoculate additional slants of TSA with sheep blood. Because viability decreased with continued subculturing, the broth harvested from the slants was pooled and stored at −80° C. Cultures for assay were used directly from the frozen vials. […]
(§3) A cell suspension of each culture was prepared (H. pylori, 10^8 to 10^9 cfu/mL; S. aureus 10^6 to 10^7 cfu/mL) and 0.5 mL spread onto TSA plates with 5% sheep blood. […] Zones of inhibition were measured following outgrowth.

[3] = tested on: Helicobacter pylori; assay: Disk diffusion bioassay, H. pylori; format: cell-based; conditions: control disk containing 80 ug metronidazole
Experimental: as §1, §2, §3

Cc1cc(C(C)(C)C)c(O)c(C(C)(C)C)c1 [BHT, Butylated Hydroxytoluene]
Oxidative Stability of Peanut Oil, hours required to reach a peroxide level of 100 meq, average ([1]; 20 ppm): 16.5 ± 2.1 h | Oxidative Stability of Peanut Oil, hours required to reach a peroxide level of 100 meq, average ([1]; 100 ppm): 12.5 ± 2.1 h

CN[C@H](CC(C)C)C(=O)N[C@H]1C(=O)N[C@@H](CC(N)=O)C(=O)N[C@H]2C(=O)N[C@H]3C(=O)N[C@H](C(=O)N[C@H](C(=O)O)c4cc(O)cc(O)c4-c4cc3ccc4O)[C@H](O)c3ccc(c(Cl)c3)Oc3cc2cc(c3O[C@@H]2O[C@H](CO)[C@@H](O)[C@H](O)[C@H]2O[C@H]2C[C@](C)(N)[C@H](O)[C@H](C)O2)Oc2ccc(cc2Cl)[C@H]1O [Vancomycin, vancomycin]
S. aureus Inhibition [2]: 15 mm

Cc1ncc([N+](=O)[O-])n1CCO [Metronidazole, metronidazole]
H. pylori Inhibition [3]: 11 mm
